The text below walks through data of US11673897B2, “Compounds for the treatment of kinase-dependent disorders” (Exelixis, Inc., priority 2018, dated 2023).

Format in all cases: cell-based
For one test, the target named is AXL (Homo sapiens (Human), UniProt P30530). Description: AXL autophosphorylation ELISA in A-172 cells. The settings on record: cellular, Gas6-stimulated, phospho-AXL ELISA. The method, then:
A-172 glioblastoma cells (ATCC #CRL-1620) were seeded at 2.5×10^5 cells/well onto 24-well plates (Greiner #662165), in […] (Thermo Fisher #11995-040) containing 10% FBS (Thermo Fisher #26140-079), […] (Thermo Fisher #11140-050), […] (Thermo Fisher #35050-061), and 1% Penicillin Streptomycin (Thermo Fisher #15140-122). A-172 cells were incubated at 37° C., […] for 24 hand then starved for 24 h in serum-free medium. Test compounds were serially diluted to produce an 8-point dose curve in fresh serum-free medium to a final concentration of 0.3% DMSO (vehicle) and added to the cells and incubated for 1 h. Cells were then stimulated with 1 μg/mL recombinant human Gas6 (R&D Systems #885-GSB-500) for 15 min, washed with cold PBS, and immediately lysed with 150 μL of cold 1× lysis buffer [20 mM Tris, 137 mM sodium chloride, 2 mM EDTA, 10% glycerol, 1% NP-40 alternative, 1 mM activated sodium orthovanadate, 1 mM PefaBloc SC (Sigma-Aldrich #11429868001), protease/phosphatase inhibitor tablet (Thermo Fisher #A32959)]. Lysates were collected and 100 μL/well added into the human phospho-AXL DuoSet IC ELISA (R&D Systems #DYC2228-2). Assay was performed according to manufacturer's instructions and sample phospho-AXL concentrations were extrapolated using human phospho-AXL control (R&D Systems #841645) as a standard. Positive control wells (100% activity) contained Gas6-stimulated, DMSO-treated cell lysates. Negative control wells (0% activity) contained Gas6-stimulated, reference inhibitor-treated cell lysates. IC50 values were calculated by nonlinear regression analysis using a 4-parameter logistic curve fit in ActivityBase XE (IDBS).

In a further test the target is Mer (Homo sapiens (Human), UniProt Q12866). Kind of test: Mer autophosphorylation ELISA in transient transfected 293A cells. To be noted: cellular, MERTK-transfected 293A cells, phospho-Mer ELISA. As for the experimental part:
293A cells (Thermo Fisher #R70507) were seeded at 1.5×10^6 cells/well onto 100 mm dish (Greiner #664169), in DMEM (Thermo Fisher #11995-040) containing 10% FBS (Thermo Fisher #26140-079), 1% MEM NEAA (Thermo Fisher #11140-050), 1% GlutaMax (Thermo Fisher #35050-061), and 1% Penicillin Streptomycin (Thermo Fisher #15140-122). 293A cells were incubated at 37° C., 5% CO2 for 24 h and then transfected with 6 μg MERTK DNA (Genecopoeia #EX-Z8208-M02) using TransIT LT1 transfection reagent (Mirus-Bio #MIR2305). After 24 h incubation, the transfected 293A cells were seeded at 1×10^5 cells/well onto 96-well plates (Corning #3904) in DMEM growth medium overnight. Test compounds were serially diluted to produce an 8-point dose curve in fresh serum-free medium to a final concentration of 0.3% DMSO (vehicle) and added to the cells and incubated for 1 h. Cells were then immediately lysed with 150 μL of cold 1× lysis buffer [20 mM Tris, 137 mM sodium chloride, 2 mM EDTA, 10% glycerol, 1% NP-40 alternative, 1 mM activated sodium orthovanadate, 1 mM PefaBloc SC (Sigma-Aldrich #11429868001), protease/phosphatase inhibitor tablet (Thermo Fisher #A32959)]. Lysates were clarified by centrifugation and 50 μL/well added into the human phospho-Mer DuoSet IC ELISA (R&D Systems #DYC2579-2). Assay was performed according to manufacturer's instructions and sample phospho-Mer concentrations were extrapolated using human phospho-Mer control (R&D Systems #841793) as a standard. Positive control wells (100% activity) contained DMSO-treated cell lysates. Negative control wells (0% activity) contained reference inhibitor-treated cell lysates. IC50 values were calculated by nonlinear regression analysis using a 4-parameter logistic curve fit in ActivityBase XE (IDBS).
In general terms: An ELISA detects its analyte on a solid surface through an enzyme-linked reagent.

In the next test the target is Met (Homo sapiens (Human), UniProt P08581). Description: Met autophosphorylation ELISA in PC-3 cells. The settings on record: cellular, HGF-stimulated, phospho-Met ELISA, read-out: c-Met IC50. The method, then:
PC-3 prostate cancer cells (ATCC #CRL-1435) were seeded at 4×10^4 cells/well onto 24-well plates (Greiner #662165), in DMEM (Thermo Fisher #11995-040) containing 10% FBS (Thermo Fisher #26140-079), 1% MEM NEAA (Thermo Fisher #11140-050), 1% GlutaMax (Thermo Fisher #35050-061), and 1% Penicillin Streptomycin (Thermo Fisher #15140-122). PC-3 cells were incubated at 37° C., 5% CO2 for 24 h and then starved for 3 h in serum-free medium. Test compounds were serially diluted to produce an 8-point dose curve in fresh serum-free medium to a final concentration of 0.3% DMSO (vehicle) and added to the cells and incubated for 1 h. Cells were then stimulated with 100 ng/mL recombinant human HGF (R&D Systems #294-HG-250) for 10 min, washed with cold PBS, and immediately lysed with 130 μL of cold 1× lysis buffer [20 mM Tris, 137 mM sodium chloride, 2 mM EDTA, 10% glycerol, 1% NP-40 alternative, 1 mM activated sodium orthovanadate, 1 mM PefaBloc SC (Sigma-Aldrich #11429868001), and protease/phosphatase inhibitor tablet (Thermo Fisher #A32959)]. Lysates were clarified by centrifugation and 100 μL/well added into the PathScan phospho-Met (panTyr) Sandwich ELISA (Cell Signaling Technology #7333). Assay was performed according to manufacturer's instructions. Positive control wells (100% activity) contained HGF-stimulated, DMSO-treated cell lysates. Negative control wells (0% activity) contained HGF-stimulated, reference inhibitor-treated cell lysates. IC50 values were calculated by nonlinear regression analysis using a 4-parameter logistic curve fit in ActivityBase XE (IDBS).

The target in the next test is KDR (Homo sapiens (Human), UniProt P35968). Kind of test: KDR autophosphorylation ELISA in HUVEC cells. To be noted: cellular, VEGF165-stimulated, phospho-KDR ELISA. As for the experimental part: Human umbilical vein endothelial cells or HUVEC (Lonza #C2519A) were seeded at 2×10^4 cells/well onto 96-well plates (Corning #3904), in EGM-2 growth medium (Lonza #CC-3162) containing 1% Penicillin Streptomycin (Thermo Fisher #15140-122). HUVEC cells were incubated at 37° C., 5% CO2 for 24 h and then starved for 24 h in serum-free EBM-2 basal medium (Lonza #CC-3156) containing 1% Penicillin Streptomycin. Test compounds were serially diluted to produce an 8-point dose curve in fresh serum-free medium to a final concentration of 0.3% DMSO (vehicle) and added to the cells and incubated for 1 h. Cells were then stimulated with 100 ng/mL recombinant human VEGF165 (R&D Systems #293-VE-500) for 5 min, washed with cold PBS, and immediately lysed with 130 μL of cold 1× lysis buffer [20 mM Tris, 137 mM sodium chloride, 2 mM EDTA, 10% glycerol, 1% NP-40 alternative, 1 mM activated sodium orthovanadate, 1 mM PefaBloc SC (Sigma-Aldrich #11429868001), protease/phosphatase inhibitor tablet (Thermo Fisher #A32959)]. Lysates were collected and 100 μL/well added into the human phospho-KDR DuoSet IC ELISA (R&D Systems #DYC1766-2). Assay was performed according to manufacturer's instructions and sample phospho-KDR concentrations were extrapolated using human phospho-KDR control (R&D Systems #841421) as a standard. Positive control wells (100% activity) contained VEGF165-stimulated, DMSO-treated cell lysates. Negative control wells (0% activity) contained non-stimulated cell lysates. IC50 values were calculated by nonlinear regression analysis using a 4-parameter logistic curve fit in ActivityBase XE (IDBS).
Chain of KDR (P35968 20-1356): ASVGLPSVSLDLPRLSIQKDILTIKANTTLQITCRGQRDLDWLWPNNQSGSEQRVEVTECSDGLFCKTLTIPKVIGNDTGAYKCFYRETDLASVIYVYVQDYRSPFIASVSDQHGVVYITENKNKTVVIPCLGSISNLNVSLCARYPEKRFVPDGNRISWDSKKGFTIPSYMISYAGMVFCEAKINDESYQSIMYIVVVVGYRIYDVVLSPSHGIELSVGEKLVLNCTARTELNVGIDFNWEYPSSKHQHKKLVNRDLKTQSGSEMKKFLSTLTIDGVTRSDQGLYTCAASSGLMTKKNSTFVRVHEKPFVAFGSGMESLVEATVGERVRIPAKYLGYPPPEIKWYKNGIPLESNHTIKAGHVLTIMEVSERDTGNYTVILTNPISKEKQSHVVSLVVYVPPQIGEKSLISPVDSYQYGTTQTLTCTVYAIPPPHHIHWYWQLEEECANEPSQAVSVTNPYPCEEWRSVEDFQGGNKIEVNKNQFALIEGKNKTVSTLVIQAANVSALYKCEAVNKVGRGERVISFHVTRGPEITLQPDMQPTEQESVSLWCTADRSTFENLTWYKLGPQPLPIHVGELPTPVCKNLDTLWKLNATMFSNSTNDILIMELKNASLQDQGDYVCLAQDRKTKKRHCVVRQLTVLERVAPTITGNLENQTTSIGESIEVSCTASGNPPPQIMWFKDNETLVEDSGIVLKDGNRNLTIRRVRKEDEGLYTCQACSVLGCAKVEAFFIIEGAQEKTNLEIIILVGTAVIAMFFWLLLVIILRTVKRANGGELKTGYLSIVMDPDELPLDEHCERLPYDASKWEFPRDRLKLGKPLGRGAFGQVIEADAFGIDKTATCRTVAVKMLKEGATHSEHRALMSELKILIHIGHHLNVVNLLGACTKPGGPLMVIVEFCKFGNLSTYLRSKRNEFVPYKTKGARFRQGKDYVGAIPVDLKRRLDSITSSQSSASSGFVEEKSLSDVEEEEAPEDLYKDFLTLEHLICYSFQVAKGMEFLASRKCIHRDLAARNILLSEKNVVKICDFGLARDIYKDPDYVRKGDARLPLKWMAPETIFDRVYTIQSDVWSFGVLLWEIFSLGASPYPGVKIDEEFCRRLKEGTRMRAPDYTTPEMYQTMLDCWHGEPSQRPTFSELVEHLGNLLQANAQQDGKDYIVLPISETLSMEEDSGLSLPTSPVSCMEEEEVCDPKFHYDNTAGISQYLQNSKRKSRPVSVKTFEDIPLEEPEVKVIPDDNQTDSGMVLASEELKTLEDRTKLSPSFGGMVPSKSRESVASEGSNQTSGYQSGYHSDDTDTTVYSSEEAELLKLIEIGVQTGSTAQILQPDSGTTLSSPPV

Chain of AXL (P30530 26-894): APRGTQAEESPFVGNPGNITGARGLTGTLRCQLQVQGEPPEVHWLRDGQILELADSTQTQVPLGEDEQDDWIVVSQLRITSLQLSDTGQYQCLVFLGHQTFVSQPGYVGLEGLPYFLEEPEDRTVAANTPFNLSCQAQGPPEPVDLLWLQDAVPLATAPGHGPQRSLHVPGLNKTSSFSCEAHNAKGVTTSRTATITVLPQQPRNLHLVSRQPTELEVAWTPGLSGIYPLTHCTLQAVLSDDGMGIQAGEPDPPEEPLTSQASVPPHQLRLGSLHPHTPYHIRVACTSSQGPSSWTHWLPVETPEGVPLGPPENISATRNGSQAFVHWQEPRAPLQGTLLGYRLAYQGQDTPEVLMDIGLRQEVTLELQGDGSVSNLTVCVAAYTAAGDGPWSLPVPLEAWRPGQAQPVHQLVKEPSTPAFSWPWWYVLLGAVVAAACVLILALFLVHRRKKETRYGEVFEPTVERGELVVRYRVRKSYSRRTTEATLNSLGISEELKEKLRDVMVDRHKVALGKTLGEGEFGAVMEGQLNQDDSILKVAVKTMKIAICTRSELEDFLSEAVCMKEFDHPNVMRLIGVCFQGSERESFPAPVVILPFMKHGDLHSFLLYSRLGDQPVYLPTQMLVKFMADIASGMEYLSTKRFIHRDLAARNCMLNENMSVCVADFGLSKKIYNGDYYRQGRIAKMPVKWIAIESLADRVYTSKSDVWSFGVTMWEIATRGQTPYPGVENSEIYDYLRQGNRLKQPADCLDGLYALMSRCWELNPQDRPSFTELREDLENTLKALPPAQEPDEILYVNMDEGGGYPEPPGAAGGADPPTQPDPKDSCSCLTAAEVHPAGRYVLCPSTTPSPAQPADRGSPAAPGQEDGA
Chain of Met (P08581 25-1390): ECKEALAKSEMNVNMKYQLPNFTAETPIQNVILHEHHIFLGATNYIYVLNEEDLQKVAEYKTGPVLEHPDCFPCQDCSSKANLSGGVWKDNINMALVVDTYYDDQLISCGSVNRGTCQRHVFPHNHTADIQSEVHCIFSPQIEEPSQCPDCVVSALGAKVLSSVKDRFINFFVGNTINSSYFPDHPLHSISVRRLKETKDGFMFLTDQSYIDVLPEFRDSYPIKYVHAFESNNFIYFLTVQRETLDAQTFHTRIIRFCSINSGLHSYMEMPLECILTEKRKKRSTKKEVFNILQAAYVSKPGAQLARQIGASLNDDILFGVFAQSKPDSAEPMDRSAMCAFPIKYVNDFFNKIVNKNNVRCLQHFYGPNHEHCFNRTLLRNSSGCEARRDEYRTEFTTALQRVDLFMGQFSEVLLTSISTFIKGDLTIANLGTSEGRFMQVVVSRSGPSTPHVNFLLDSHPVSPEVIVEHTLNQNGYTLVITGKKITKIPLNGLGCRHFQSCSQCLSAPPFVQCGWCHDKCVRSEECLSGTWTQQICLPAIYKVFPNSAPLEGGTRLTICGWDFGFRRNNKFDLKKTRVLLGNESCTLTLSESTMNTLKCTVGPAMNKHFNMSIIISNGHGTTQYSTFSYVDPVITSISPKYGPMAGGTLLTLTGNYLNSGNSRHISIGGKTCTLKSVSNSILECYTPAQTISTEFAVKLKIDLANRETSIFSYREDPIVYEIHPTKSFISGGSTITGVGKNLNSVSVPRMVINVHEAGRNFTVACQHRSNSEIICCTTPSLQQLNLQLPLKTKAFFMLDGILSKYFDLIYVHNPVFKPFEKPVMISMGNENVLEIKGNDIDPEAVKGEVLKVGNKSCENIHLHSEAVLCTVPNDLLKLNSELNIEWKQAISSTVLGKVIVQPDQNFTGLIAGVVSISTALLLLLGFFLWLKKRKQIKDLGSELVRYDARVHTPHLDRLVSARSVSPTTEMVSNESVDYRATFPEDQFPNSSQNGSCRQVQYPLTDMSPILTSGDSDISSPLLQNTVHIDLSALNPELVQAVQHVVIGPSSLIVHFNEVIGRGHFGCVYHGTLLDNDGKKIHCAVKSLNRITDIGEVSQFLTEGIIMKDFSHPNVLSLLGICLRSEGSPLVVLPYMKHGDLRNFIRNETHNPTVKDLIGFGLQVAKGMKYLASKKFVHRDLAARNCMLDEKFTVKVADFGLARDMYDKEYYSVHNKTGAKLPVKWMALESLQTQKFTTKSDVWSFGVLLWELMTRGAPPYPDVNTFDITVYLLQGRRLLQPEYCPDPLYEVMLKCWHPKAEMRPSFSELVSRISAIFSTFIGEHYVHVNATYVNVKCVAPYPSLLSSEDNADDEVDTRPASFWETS
Chain of Mer (Q12866 21-999): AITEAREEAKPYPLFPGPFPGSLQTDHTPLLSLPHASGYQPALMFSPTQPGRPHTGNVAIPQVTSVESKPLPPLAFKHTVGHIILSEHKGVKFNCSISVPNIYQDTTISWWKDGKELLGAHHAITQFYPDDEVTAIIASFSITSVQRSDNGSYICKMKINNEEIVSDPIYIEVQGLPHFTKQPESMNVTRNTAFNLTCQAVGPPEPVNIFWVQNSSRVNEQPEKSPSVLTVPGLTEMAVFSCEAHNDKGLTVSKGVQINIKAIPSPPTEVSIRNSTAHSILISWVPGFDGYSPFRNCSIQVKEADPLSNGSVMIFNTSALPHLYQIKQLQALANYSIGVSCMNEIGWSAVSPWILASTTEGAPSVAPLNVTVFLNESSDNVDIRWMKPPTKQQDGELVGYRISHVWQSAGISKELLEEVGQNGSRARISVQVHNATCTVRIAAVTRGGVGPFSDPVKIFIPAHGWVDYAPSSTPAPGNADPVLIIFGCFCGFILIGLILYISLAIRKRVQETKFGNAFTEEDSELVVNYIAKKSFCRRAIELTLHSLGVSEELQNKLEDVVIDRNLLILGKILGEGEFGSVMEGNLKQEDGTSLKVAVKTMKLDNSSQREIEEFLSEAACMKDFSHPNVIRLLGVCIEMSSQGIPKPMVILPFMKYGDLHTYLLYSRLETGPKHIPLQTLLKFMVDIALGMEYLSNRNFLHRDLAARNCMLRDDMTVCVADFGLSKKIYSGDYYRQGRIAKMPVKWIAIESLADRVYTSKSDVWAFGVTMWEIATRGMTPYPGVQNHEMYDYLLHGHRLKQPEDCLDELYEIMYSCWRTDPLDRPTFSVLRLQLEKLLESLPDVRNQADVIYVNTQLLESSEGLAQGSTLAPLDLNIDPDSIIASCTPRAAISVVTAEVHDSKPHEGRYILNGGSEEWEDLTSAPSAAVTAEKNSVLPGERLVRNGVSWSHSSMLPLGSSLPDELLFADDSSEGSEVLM

One may read the IC50 as the concentration that inhibits the measured activity by half. Consider `CNC(=O)c1cc2c(Oc3ncc(NC(=O)C4(C(=O)Nc5ccc(F)cc5)CC4)cc3Cl)ccnc2cc1OC` [Compound 19, 1-N′-[5-Chloro-6-[7-methoxy-6-(methylcarbamoyl)quinolin-4-yl]oxypyridin-3-yl]-1-N-(4-fluorophenyl)cyclopropane-1,1-dicarboxamide], for which the IC50 is at most 10 nM against AXL, 10 to 100 nM on Mer, 10 to 100 nM at Met and above 300 nM against KDR.
Regarding `O=C(Nc1ccc(F)cc1)C1(C(=O)Nc2cnc(Oc3ccnc4cc5c(nc34)OCCO5)c(Cl)c2)CC1` [Compound 104, 1-N′-[5-Chloro-6-(2,3-dihydro-[1,4]dioxino[2,3-b][1,5]naphthyridin-6-yloxy)pyridin-3-yl]-1-N-(4-fluorophenyl)cyclopropane-1,1-dicarboxamide], the IC50 at AXL, on Met and against KDR was above 300 nM each time.
In the case of `O=C(Nc1ccc(F)cc1)C1(C(=O)Nc2cnc(Oc3ccnc4cc5c(nc34)OCCO5)c(F)c2)CC1` [Compound 105, 1-N′-[6-(2,3-Dihydro-[1,4]dioxino[2,3-b][1,5]naphthyridin-6-yloxy)-5-fluoropyridin-3-yl]-1-N-(4-fluorophenyl)cyclopropane-1,1-dicarboxamide], the IC50 against AXL, on Met and at KDR was above 300 nM throughout.
With `COCCOc1cc2nccc(Oc3ccc(NC(=O)C4(C(=O)Nc5ccc(F)cc5)CC4)cn3)c2nc1OC` [Compound 114, 1-N-(4-Fluorophenyl)-1-N′-[6-[[6-methoxy-7-(2-methoxyethoxy)-1,5-naphthyridin-4-yl]oxy]pyridin-3-yl]cyclopropane-1,1-dicarboxamide], the IC50 against AXL is 100 to 300 nM; at Met it was 100 to 300 nM; at KDR, above 300 nM.
As for `COCCOc1cc2nccc(Oc3ncc(NC(=O)C4(C(=O)Nc5ccc(F)cc5)CC4)cc3Cl)c2nc1OC` [Compound 115, 1-N′-[5-Chloro-6-[[6-methoxy-7-(2-methoxyethoxy)-1,5-naphthyridin-4-yl]oxy]pyridin-3-yl]-1-N-(4-fluorophenyl)cyclopropane-1,1-dicarboxamide], the IC50 against AXL was 100 to 300 nM; on Met, 10 to 100 nM; against KDR it was above 300 nM.
The corresponding values for `COc1nc2c(Oc3ncc(NC(=O)C4(C(=O)Nc5ccc(F)cc5)CC4)cc3F)ccnc2cc1O` [Compound 121, 1-N′-[5-Fluoro-6-[(7-hydroxy-6-methoxy-1,5-naphthyridin-4-yl)oxy]pyridin-3-yl]-1-N-(4-fluorophenyl)cyclopropane-1,1-dicarboxamide] are above 300 nM, above 300 nM and above 300 nM.
For `COCCOc1nc2c(Oc3ncc(NC(=O)C4(C(=O)Nc5ccc(F)cc5)CC4)cc3F)ccnc2cc1OC` [Compound 134, 1-N′-[5-Fluoro-6-[[7-methoxy-6-(2-methoxyethoxy)-1,5-naphthyridin-4-yl]oxy]pyridin-3-yl]-1-N-(4-fluorophenyl)cyclopropane-1,1-dicarboxamide], the IC50 against AXL, at Met and against KDR was above 300 nM throughout.
On to `COc1cc2nccc(Oc3ncc(NC(=O)C4(C(=O)Nc5ccc(F)cc5)CC4)cc3F)c2nc1OCCCN1CCOCC1` [Compound 135, 1-N′-[5-Fluoro-6-[[7-methoxy-6-(3-morpholin-4-ylpropoxy)-1,5-naphthyridin-4-yl]oxy]pyridin-3-yl]-1-N-(4-fluorophenyl)cyclopropane-1,1-dicarboxamide], for which the IC50 on AXL, on Met and on KDR was above 300 nM in each case.
Take `COc1cc2ncnc(Oc3ccc(NC(=O)C4(C(=O)Nc5ccc(F)cc5)CC4)cn3)c2nc1OC` [Compound 145, 1-N′-[6-(6,7-Dimethoxypyrido[3,2-d]pyrimidin-4-yl)oxypyridin-3-yl]-1-N-(4-fluorophenyl)cyclopropane-1,1-dicarboxamide]: the IC50 on AXL was 100 to 300 nM; at Met, above 300 nM; on KDR it was above 300 nM.
For the compound `COCCOc1cc2ncnc(Oc3ccc(NC(=O)C4(C(=O)Nc5ccc(F)cc5)CC4)cn3)c2nc1OC` [Compound 156, 1-N-(4-Fluorophenyl)-1-N′-[6-[6-methoxy-7-(2-methoxyethoxy)pyrido[3,2-d]pyrimidin-4-yl]oxypyridin-3-yl]cyclopropane-1,1-dicarboxamide], the figures for the half-maximal inhibitory concentration (IC50) against AXL, on Met and against KDR were 10 to 100 nM, above 300 nM and above 300 nM, respectively.
Take `COCCOc1cc2ncnc(Oc3ncc(NC(=O)C4(C(=O)Nc5ccc(F)cc5)CC4)cc3F)c2nc1OC` [Compound 159, 1-N′-[5-Fluoro-6-[6-methoxy-7-(2-methoxyethoxy)pyrido[3,2-d]pyrimidin-4-yl]oxypyridin-3-yl]-1-N-(4-fluorophenyl)cyclopropane-1,1-dicarboxamide]: the IC50 against AXL, at Met and at KDR was above 300 nM each time.
